Assays:
Format in all cases: functional
Reticulitermes speratus [1] = assay: Antifeedant activity against Reticulitermes speratus assessed as antifeedant consumption at 50 ug/disk after 30 days by no-choice bioassay
Reticulitermes speratus [2] = assay: Antifeedant activity against Reticulitermes speratus assessed as antifeedant consumption at 150 ug/disk after 30 days by no-choice bioassay
Reticulitermes speratus [3] = assay: Antifeedant activity against Reticulitermes speratus assessed as antifeedant consumption at 200 ug/disk after 30 days by no-choice bioassay
Reticulitermes speratus [4] = assay: Antifeedant activity against Reticulitermes speratus assessed as reduction in feeding at 100 to 200 ug/disk after 30 days by no-choice bioassay relative to vehicle-control; set-up: scale not given: the % may be the effect or the level left
Reticulitermes speratus [5] = assay: Antifeedant activity against Reticulitermes speratus assessed per disk after 30 days by no-choice bioassay
Reticulitermes speratus [6] = assay: Antifeedant activity against Reticulitermes speratus assessed as antifeedant consumption at 75 ug/disk after 30 days by no-choice bioassay
Reticulitermes speratus [7] = assay: Antifeedant activity against Reticulitermes speratus assessed as antifeedant consumption at 100 ug/disk after 30 days by no-choice bioassay
Reticulitermes speratus [8] = assay: Antifeedant activity against Reticulitermes speratus assessed as survival at 300 ug/disk after 30 days by no-choice bioassay (reference value: 92.5%); conditions: 720 h
Reticulitermes speratus [9] = assay: Antifeedant activity against Reticulitermes speratus assessed as survival at 400 ug/disk after 30 days by no-choice bioassay (reference value: 92.5%); conditions: 720 h
Reticulitermes speratus [10] = assay: Antifeedant activity against Reticulitermes speratus assessed as survival at 200 ug/disk after 30 days by no-choice bioassay (reference value: 92.5%); conditions: 720 h
Reticulitermes speratus [11] = assay: Antifeedant activity against Reticulitermes speratus assessed as survival at 50 ug/disk after 30 days by no-choice bioassay (reference value: 92.5%); conditions: 720 h
Reticulitermes speratus [12] = assay: Antifeedant activity against Reticulitermes speratus assessed as survival at 100 ug/disk after 30 days by no-choice bioassay (reference value: 92.5%); conditions: 720 h
Reticulitermes speratus [13] = assay: Antifeedant activity against Reticulitermes speratus assessed as antifeedant consumption at 300 ug/disk after 30 days by no-choice bioassay
Reticulitermes speratus [14] = assay: Antifeedant activity against Reticulitermes speratus assessed as antifeedant consumption at 400 ug/disk after 30 days by no-choice bioassay
Reticulitermes speratus [15] = assay: Antifeedant activity against Reticulitermes speratus assessed as survival at 500 ug/disk after 30 days by no-choice bioassay (reference value: 92.5%); conditions: 720 h
Reticulitermes speratus [16] = assay: Antifeedant activity against Reticulitermes speratus assessed as antifeedant consumption at 500 ug/disk after 30 days by no-choice bioassay
Reticulitermes speratus [17] = assay: Antifeedant activity against Reticulitermes speratus assessed as survival at 25 ug/disk after 30 days by no-choice bioassay (reference value: 92.5%); conditions: 720 h
Reticulitermes speratus [18] = assay: Antifeedant activity against Reticulitermes speratus assessed as survival at 7.5 ug/disk after 30 days by no-choice bioassay (reference value: 92.5%); conditions: 720 h
Reticulitermes speratus [19] = assay: Antifeedant activity against Reticulitermes speratus assessed as antifeedant consumption at 10 ug/disk after 30 days by no-choice bioassay
Reticulitermes speratus [20] = assay: Antifeedant activity against Reticulitermes speratus assessed as antifeedant consumption at 7.5 ug/disk after 30 days by no-choice bioassay
Reticulitermes speratus [21] = assay: Antifeedant activity against Reticulitermes speratus assessed as reduction in feeding at 50 ug/disk after 30 days by no-choice bioassay relative to vehicle-control; set-up: scale not given: the % may be the effect or the level left
Reticulitermes speratus [22] = assay: Antifeedant activity against Reticulitermes speratus assessed as antifeedant consumption at 5 ug/disk after 30 days by no-choice bioassay
Reticulitermes speratus [23] = assay: Antifeedant activity against Reticulitermes speratus assessed as survival at 10 ug/disk after 30 days by no-choice bioassay (reference value: 92.5%); conditions: 720 h
Reticulitermes speratus [24] = assay: Antifeedant activity against Reticulitermes speratus assessed as survival at 5 ug/disk after 30 days by no-choice bioassay (reference value: 92.5%); conditions: 720 h
Reticulitermes speratus [25] = assay: Antifeedant activity against Reticulitermes speratus assessed as antifeedant consumption at 25 ug/disk after 30 days by no-choice bioassay
Reticulitermes speratus [26] = assay: Antifeedant activity against Reticulitermes speratus assessed as survival at 150 ug/disk after 30 days by no-choice bioassay (reference value: 92.5%); conditions: 720 h
Reticulitermes speratus [27] = assay: Antifeedant activity against Reticulitermes speratus assessed as survival at 125 ug/disk after 30 days by no-choice bioassay (reference value: 92.5%); conditions: 720 h
Reticulitermes speratus [28] = assay: Antifeedant activity against Reticulitermes speratus assessed as antifeedant consumption at 125 ug/disk after 30 days by no-choice bioassay
Reticulitermes speratus [29] = assay: Antifeedant activity against Reticulitermes speratus assessed as survival at 75 ug/disk after 30 days by no-choice bioassay (reference value: 92.5%); conditions: 720 h

Structure (SMILES)	Activity (Reticulitermes speratus [1]) [µg]	Activity (Reticulitermes speratus [4]) [%]	PC50 (Reticulitermes speratus [5]) [µg]	PC95 (Reticulitermes speratus [5]) [µg]	Activity (Reticulitermes speratus [7]) [µg]	survival at 300 µg/disc (Reticulitermes speratus [8]) [%]	survival at 400 µg/disc (Reticulitermes speratus [9]) [%]	survival at 200 µg/disc (Reticulitermes speratus [10]) [%]	survival at 50 µg/disc (Reticulitermes speratus [11]) [%]	survival at 100 µg/disc (Reticulitermes speratus [12]) [%]	also measured
COC(=O)C[C@H]1[C@]2(C)C3=C(C)[C@H](c4ccoc4)C[C@@H]3O[C@@H]2[C@H](O)[C@@H]2[C@@]1(C)C(=O)C=C[C@@]2(C)O	16.3	80	96	245.4	19.9	–	–	–	–	–	Activity (Reticulitermes speratus [2]): 10 µg; Activity (Reticulitermes speratus [3]): 6.4 µg; Activity (Reticulitermes speratus [6]): 25.2 µg
CC(=O)O[C@@H]1C[C@H]2C(C)(C)C(=O)C=C[C@]2(C)[C@H]2CC[C@]3(C)C(=CC(=O)[C@@H]3c3ccoc3)[C@@]21C [17-EPIAZADIRADIONE]	–	–	–	–	–	86.5	86.5	85.5	87	85.5	–
CC(=O)O[C@@H]1C[C@H]2C(C)(C)C(=O)C=C[C@]2(C)[C@H]2CC[C@]3(C)C(=CC(=O)[C@@]3(O)c3ccoc3)[C@@]21C [17-HYDROXYAZADIRADIONE]	17.8	80	67.8	235.6	16.5	33.5	–	50	73	61	Activity (Reticulitermes speratus [3]): 9.4 µg; Activity (Reticulitermes speratus [13]): 8.6 µg
CC(=O)O[C@@H]1C[C@H]2C(C)(C)C(=O)C=C[C@]2(C)[C@H]2CC[C@]3(C)C(=CC(=O)[C@H]3c3ccoc3)[C@@]21C [AZADIRADIONE]	–	–	238.5	827.5	55.1	39	24.5	65.5	–	73	Activity (Reticulitermes speratus [14]): 49.5 µg; Activity (Reticulitermes speratus [3]): 79.3 µg; survival at 500 µg/disc (Reticulitermes speratus [15]): 0.5%; Activity (Reticulitermes speratus [13]): 62.9 µg; Activity (Reticulitermes speratus [16]): 2 µg
CC1(C)C(=O)C=C[C@]2(C)[C@H]3CC[C@@]4(C)[C@H](c5ccoc5)OC(=O)[C@H]5O[C@]54[C@]3(C)[C@H](O)C[C@@H]12 [DEACETYLGEDUNIN]	4.7	–	22.5	113.7	7.2	–	–	–	20	12	survival at 25 µg/disc (Reticulitermes speratus [17]): 45.3%; survival at 7.5 µg/disc (Reticulitermes speratus [18]): 87.3%; Activity (Reticulitermes speratus [19]): 3.2 µg; Activity (Reticulitermes speratus [20]): 3.1 µg; Activity (Reticulitermes speratus [21]): 80.38%; Activity (Reticulitermes speratus [22]): 2.2 µg; survival at 10 µg/disc (Reticulitermes speratus [23]): 73.3%; survival at 5 µg/disc (Reticulitermes speratus [24]): 91.3%; Activity (Reticulitermes speratus [25]): 4.7 µg
COC(=O)C[C@H]1[C@]2(C)C3=C(C)[C@H](c4ccoc4)C[C@H]3O[C@@H]2[C@H](O)[C@@H]2[C@]1(C)C(=O)C=C[C@@]2(C)C(=O)OC [DEACETYLNIMBIN]	–	–	280.6	1581.2	–	74	–	78.5	87.5	85	–
C/C=C(\C)C(=O)O[C@H]1C[C@@H](O)[C@@]2(C)CO[C@H]3[C@H]4O[C@@H]5C[C@@H](c6ccoc6)C(C)=C5[C@@]4(C)[C@H](CC(=O)OC)[C@]1(C)[C@@H]32 [DESACETYL SALANNIN]	–	–	55.2	1373.1	–	49	44	58	–	72	–
CC(=O)O[C@@H]1C[C@H]2C(C)(C)C(=O)C=C[C@]2(C)[C@H]2CC[C@@]3(C)[C@H](c4ccoc4)C(=O)[C@H]4O[C@]43[C@@]21C [EPOXYAZADIRADIONE]	–	–	–	–	–	76.5	64	77	–	75.5	–
CC(=O)O[C@@H]1C[C@H]2C(C)(C)C(=O)C=C[C@]2(C)[C@H]2CC[C@@]3(C)[C@H](c4ccoc4)OC(=O)[C@H]4O[C@]43[C@@]21C [GEDUNIN]	9	80	49	218.4	11	–	–	–	51.3	39.3	survival at 150 µg/disc (Reticulitermes speratus [26]): 13.3%; survival at 25 µg/disc (Reticulitermes speratus [17]): 82%; survival at 125 µg/disc (Reticulitermes speratus [27]): 23.3%; Activity (Reticulitermes speratus [2]): 5 µg; Activity (Reticulitermes speratus [6]): 10.5 µg; Activity (Reticulitermes speratus [28]): 6.8 µg; Activity (Reticulitermes speratus [25]): 8.5 µg; survival at 75 µg/disc (Reticulitermes speratus [29]): 49.3%
COC(=O)C[C@H]1[C@]2(C)C3=C(C)[C@H](c4ccoc4)C[C@H]3O[C@@H]2[C@H](OC(C)=O)[C@@H]2[C@]1(C)C(=O)C=C[C@@]2(C)C(=O)OC [NIMBIN]	–	–	–	–	–	83	83	84.5	–	84	survival at 500 µg/disc (Reticulitermes speratus [15]): 80.5%
C/C=C(/C)C(=O)O[C@H]1C[C@@H](OC(C)=O)[C@@]2(C)CO[C@H]3[C@H]4O[C@@H]5C[C@@H](c6ccoc6)C(C)=C5[C@@]4(C)[C@H](CC(=O)OC)[C@]1(C)[C@@H]32 [SALANNIN]	1.8	80	19.5	203.3	1.4	–	–	–	58.7	40	survival at 150 µg/disc (Reticulitermes speratus [26]): 30.7%; survival at 25 µg/disc (Reticulitermes speratus [17]): 90.7%; survival at 125 µg/disc (Reticulitermes speratus [27]): 17.3%; Activity (Reticulitermes speratus [2]): 0.5 µg; Activity (Reticulitermes speratus [6]): 0.8 µg; Activity (Reticulitermes speratus [28]): 0.8 µg; Activity (Reticulitermes speratus [25]): 3.7 µg; survival at 75 µg/disc (Reticulitermes speratus [29]): 29.3%

From ChEMBL document CHEMBL3045142, “Several Antifeedants from Neem Oil,Azadirachta indicaA. Juss., againstReticulitermes speratusKolbe (Isoptera: Rhinotermitidae)” (1992)
